ChEMBL document CHEMBL1909046, “DrugMatrix in vitro pharmacology data”

Tests used:
[1] = target: T1, Alpha-1B adrenergic receptor (Rattus norvegicus, UniProt P15823); assay: DRUGMATRIX: Alpha-1B adrenergic receptor radioligand binding (ligand: prazosin); assay type: cell membranes, Wistar, Liver, Membrane; conditions: Not Active = under 50% inhibition at 10 µM
T1 sequence (P15823 whole entry): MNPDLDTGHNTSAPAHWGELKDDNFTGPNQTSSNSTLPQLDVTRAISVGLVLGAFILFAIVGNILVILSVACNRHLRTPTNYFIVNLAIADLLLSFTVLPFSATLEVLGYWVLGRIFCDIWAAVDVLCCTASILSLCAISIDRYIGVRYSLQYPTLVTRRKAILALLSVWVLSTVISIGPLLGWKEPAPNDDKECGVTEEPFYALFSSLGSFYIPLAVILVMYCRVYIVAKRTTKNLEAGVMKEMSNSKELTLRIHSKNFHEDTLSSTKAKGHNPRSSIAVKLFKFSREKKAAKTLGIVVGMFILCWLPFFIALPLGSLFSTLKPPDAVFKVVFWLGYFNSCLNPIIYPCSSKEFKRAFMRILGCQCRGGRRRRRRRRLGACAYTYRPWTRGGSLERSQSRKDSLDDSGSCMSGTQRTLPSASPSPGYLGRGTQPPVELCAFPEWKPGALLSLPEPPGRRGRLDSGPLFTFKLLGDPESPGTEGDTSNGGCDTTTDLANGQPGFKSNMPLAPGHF

[2] = target: T2, Alpha-2A adrenergic receptor (Homo sapiens, UniProt P08913); assay type: cell membranes, Sf9, Membrane; conditions: sf9; note: in other assays of this panel Not Active means under 50% inhibition at 10 µM
T2 sequence (P08913 whole entry): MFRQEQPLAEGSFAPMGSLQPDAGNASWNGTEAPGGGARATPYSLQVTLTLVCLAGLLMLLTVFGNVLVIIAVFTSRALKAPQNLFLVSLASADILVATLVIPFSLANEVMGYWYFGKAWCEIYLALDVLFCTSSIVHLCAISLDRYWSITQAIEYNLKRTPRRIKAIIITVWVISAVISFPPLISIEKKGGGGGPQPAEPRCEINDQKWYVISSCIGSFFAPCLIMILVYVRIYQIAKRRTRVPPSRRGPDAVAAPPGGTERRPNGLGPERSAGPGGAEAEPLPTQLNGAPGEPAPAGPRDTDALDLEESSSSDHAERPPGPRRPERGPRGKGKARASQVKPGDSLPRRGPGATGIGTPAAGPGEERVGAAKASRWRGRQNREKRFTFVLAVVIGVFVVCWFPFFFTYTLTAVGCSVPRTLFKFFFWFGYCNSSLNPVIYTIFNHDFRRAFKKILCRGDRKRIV

[3] = target: T3, Calcitonin receptor (Homo sapiens, UniProt P30988); assay type: cell membranes, Membrane; conditions: t47d; note: in other assays of this panel Not Active means under 50% inhibition at 10 µM
T3 sequence (P30988 whole entry): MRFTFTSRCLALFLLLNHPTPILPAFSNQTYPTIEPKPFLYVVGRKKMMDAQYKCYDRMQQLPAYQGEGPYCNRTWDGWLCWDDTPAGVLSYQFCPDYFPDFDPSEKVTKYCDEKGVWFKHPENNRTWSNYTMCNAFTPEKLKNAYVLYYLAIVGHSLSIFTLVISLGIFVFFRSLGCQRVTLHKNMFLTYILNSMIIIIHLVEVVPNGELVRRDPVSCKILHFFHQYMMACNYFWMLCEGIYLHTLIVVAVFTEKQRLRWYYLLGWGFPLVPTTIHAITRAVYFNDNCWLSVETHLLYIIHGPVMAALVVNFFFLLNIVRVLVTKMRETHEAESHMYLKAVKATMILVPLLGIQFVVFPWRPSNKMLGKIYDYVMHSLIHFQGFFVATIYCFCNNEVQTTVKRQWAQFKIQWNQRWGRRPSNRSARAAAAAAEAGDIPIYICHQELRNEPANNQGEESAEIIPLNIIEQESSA

[4] = target: T4, Cholecystokinin receptor type A (Homo sapiens, UniProt P32238); assay type: cell membranes, Membrane; conditions: 1321-n1; note: in other assays of this panel Not Active means under 50% inhibition at 10 µM
T4 sequence (P32238 whole entry): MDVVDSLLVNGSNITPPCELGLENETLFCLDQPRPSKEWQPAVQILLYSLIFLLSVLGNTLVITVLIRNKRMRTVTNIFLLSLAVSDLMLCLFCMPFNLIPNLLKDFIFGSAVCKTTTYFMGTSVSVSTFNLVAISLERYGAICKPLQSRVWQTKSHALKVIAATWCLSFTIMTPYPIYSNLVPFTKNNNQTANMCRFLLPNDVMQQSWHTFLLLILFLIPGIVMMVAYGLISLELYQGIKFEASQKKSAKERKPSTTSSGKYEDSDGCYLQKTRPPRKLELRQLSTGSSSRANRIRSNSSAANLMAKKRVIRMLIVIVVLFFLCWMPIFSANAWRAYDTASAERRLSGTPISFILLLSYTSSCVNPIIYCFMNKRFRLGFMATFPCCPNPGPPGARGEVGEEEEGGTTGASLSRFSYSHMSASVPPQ

[5] = DRUGMATRIX: GABAA, Flunitrazepam, Central radioligand binding (ligand: [3H] Flunitrazepam); assay type: cell membranes, Rattus norvegicus, Wistar, Brain, Membrane; conditions: Not Active = under 50% inhibition at 10 µM
[6] = target: Melanocortin receptor 4 (Homo sapiens, UniProt P32245); assay type: cell membranes, HEK293, Membrane; conditions: hek293; note: in other assays of this panel Not Active means under 50% inhibition at 10 µM
[7] = target: Protein phosphatase 3 catalytic subunit alpha (Homo sapiens, UniProt Q08209); design: species or system Escherichia coli

Sequence of Melanocortin receptor 4 (P32245 whole entry): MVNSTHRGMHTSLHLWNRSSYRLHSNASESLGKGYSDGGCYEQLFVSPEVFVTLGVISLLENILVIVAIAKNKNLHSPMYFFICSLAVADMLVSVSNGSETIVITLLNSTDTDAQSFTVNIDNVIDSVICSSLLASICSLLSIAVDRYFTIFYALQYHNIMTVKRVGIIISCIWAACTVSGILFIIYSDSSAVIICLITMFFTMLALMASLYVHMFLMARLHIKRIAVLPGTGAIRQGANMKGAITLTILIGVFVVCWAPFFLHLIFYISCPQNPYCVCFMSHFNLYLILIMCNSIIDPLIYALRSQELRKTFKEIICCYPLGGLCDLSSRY

CC1(C)O[C@@H]2C[C@H]3[C@@H]4CCC5=CC(=O)CC[C@]5(C)[C@@]4(F)[C@@H](O)C[C@]3(C)[C@]2(C(=O)CCl)O1 [HALCINONIDE]
Not Active: IC50 [1] | IC50 [2] | IC50 [3] | IC50 [4] | IC50 [5] | Ki [5] | IC50 [6] | IC50 [7]

O=c1[nH]c(=O)n([C@H]2C[C@H](O)[C@@H](CO)O2)cc1I [IDOXURIDINE]
Not Active: IC50 [1] | IC50 [2] | IC50 [3] | IC50 [4] | IC50 [5] | Ki [5] | IC50 [6] | IC50 [7]

CC1Cc2ccccc2N1NC(=O)c1ccc(Cl)c(S(N)(=O)=O)c1 (stereo not drawn) [INDAPAMIDE]
Not Active: IC50 [1] | IC50 [2] | IC50 [3] | IC50 [4] | IC50 [5] | Ki [5] | IC50 [6] | IC50 [7]

Nc1nc(N)nc(-c2cc(Cl)ccc2Cl)n1.O=C(O)/C=C\C(=O)O [IRSOGLADINE MALEATE]
Not Active: IC50 [1] | IC50 [2] | IC50 [3] | IC50 [4] | IC50 [5] | Ki [5] | IC50 [6] | IC50 [7]

CCC(C)n1ncn(-c2ccc(N3CCN(c4ccc(OCC5COC(Cn6cncn6)(c6ccc(Cl)cc6Cl)O5)cc4)CC3)cc2)c1=O (stereo not drawn) [ITRACONAZOLE]
Not Active: IC50 [1] | IC50 [2] | IC50 [3] | IC50 [4] | IC50 [5] | Ki [5] | IC50 [6] | IC50 [7]

CCCCN1CCCC[C@H]1C(=O)Nc1c(C)cccc1C [LEVOBUPIVACAINE]
Not Active: IC50 [1] | IC50 [2] | IC50 [3] | IC50 [4] | IC50 [5] | Ki [5] | IC50 [6] | IC50 [7]

CCCCc1nc(Cl)c(CO)n1Cc1ccc(-c2ccccc2-c2nnn[nH]2)cc1 [LOSARTAN]
Not Active: IC50 [1] | IC50 [2] | IC50 [3] | IC50 [4] | IC50 [5] | Ki [5] | IC50 [6] | IC50 [7]

Sc1ncnc2nc[nH]c12 [MERCAPTOPURINE ANHYDROUS]
Not Active: IC50 [1] | IC50 [2] | IC50 [3] | IC50 [4] | IC50 [5] | Ki [5] | IC50 [6] | IC50 [7]

C[C@](N)(Cc1ccc(O)c(O)c1)C(=O)O [METHYLDOPA]
Not Active: IC50 [1] | IC50 [2] | IC50 [3] | IC50 [4] | IC50 [5] | Ki [5] | IC50 [6] | IC50 [7]

C[C@]12CCC(=O)C=C1CC[C@@H]1[C@@H]2CC[C@@]2(C)[C@H]1CC[C@]2(C)O [METHYLTESTOSTERONE]
Not Active: IC50 [1] | IC50 [2] | IC50 [3] | IC50 [4] | IC50 [5] | Ki [5] | IC50 [6] | IC50 [7]

Cc1ccccc1N1C(=O)c2cc(S(N)(=O)=O)c(Cl)cc2NC1C (stereo not drawn) [METOLAZONE]
Not Active: IC50 [1] | IC50 [2] | IC50 [3] | IC50 [4] | IC50 [5] | Ki [5] | IC50 [6] | IC50 [7]
